The subject of assay [1] is rhinovirus Type 2. The experiment in a line: microbe, parasite or virus in culture. The format is cell-based. As to conditions: for MIC: Enterovirus, read-out: MIC vs. rhinovirus Type 2 in vitro.
Assay [2] has as its system polio-2 virus. The experiment in a line: microbe, parasite or virus in culture. Format: cell-based. As to conditions: read-out: MIC vs. polio-2 virus.
Assay [3] has as its system poliovirus. Format: in vivo, mice. As to conditions: parenteral medication.
Assay [4] deals with Echo-9. The assay can be described thus: In vitro MIC against Echo-9. The format is cell-based.
The test system of assay [5] is poliovirus. The assay can be described thus: animal or person. Format: in vivo, mice.
For assay [6], the system named is picornaviruses and enteroviruses. The format is cell-based.
The test system of assay [7] is human rhinovirus serotypes. The format is cell-based.
Assay [8] has as its system Echo-11. The experiment in a line: microbe, parasite or virus in culture. As to conditions: read-out: MIC vs. Echo-11. Format: cell-based.
Assay [9] relates to Polio-3. The assay can be described thus: microbe, parasite or virus in culture. As to conditions: read-out: MIC vs. Polio-3. Format: cell-based.

≈ marks a conversion by molar mass, not a printed value. Entries after “also recorded” stand apart in the source; their conditions may differ.

Turning to `Cc1cc(CCCCCOc2ccc(C(=O)O)cc2)on1` [Example 17, 5-[5-(4-Carboxyphenoxy)pentyl]-3-methylisoxazole], in [1], the MIC was 12.5 µg/mL (≈ 43.2 µM). As for `Cc1cc(CCCCCCCOc2ccc(C#N)cc2)on1` [Example 5, 5-[7-(4-Cyanophenoxy)heptyl]-3-methylisoxazole], the “activity vs. rhinovirus Type 2 in vitro” value in assay [1] was “inactive”. On to `Cc1cc(CCCCCCCOc2ccc(C(=O)N(C)C)cc2)on1` [Example 35(b), N,N-dimethyl-4-[7-(3-methyl-5-isoxazolyl)heptyloxy]benzamide], for which the MIC in assay [2] was 2.5 µg/mL (≈ 7.26 µM). Regarding `CCOC(=O)c1ccc(OCCCCc2cc(C)no2)cc1` [Example 30, 5-[4-(4-Ethoxycarbonylphenoxy)butyl]-3-methylisoxazole], in [1], the MIC is 3.1 µg/mL (≈ 10.2 µM). Consider `Cc1cc(CCCCCCCOc2ccc(C(=O)OC(C)(C)C)cc2)on1` [Example 8, 5-[7-(4-Tertiary-butyloxycarbonylphenoxy)heptyl]-3-methylisoxazole], for which the MIC in [1] came out at 6.2 µg/mL (≈ 16.6 µM). On to `Cc1cc(CCCCCCCOc2cccc(C(=O)O)c2)on1` [Example 19, 5-[7-(3-Carboxyphenoxy)heptyl]-3-methylisoxazole], for which the “activity vs. rhinovirus Type 2 in vitro” value in [1] was “inactive”.

For `Cc1cc(CCCCCCCOc2ccc(C(=O)NN)cc2)on1` [Example 33, 5-[7-(4-Hydrazinocarbonylphenoxy)heptyl]-3-methylisoxazole], the MIC in [1] was determined as 0.64 µg/mL (≈ 1.93 µM). Turning to `COc1ccc(OCCCCCCCc2cc(C)no2)c([N+](=O)[O-])c1` [Example 38, 3-Methyl-5-[7-(2-nitro-4-methoxyphenoxy)heptyl]isoxazole], the MIC came out at 0.17 µg/mL (≈ 0.488 µM) in assay [2] and 0.3 µg/mL (≈ 0.861 µM) in assay [1]. For the compound `CCC(=O)c1ccc(OCCCCCCCc2cc(C)no2)cc1` [Example 32, 5-[7-(4-Propionylphenoxy)heptyl]-3-methylisoxazole], the MIC in assay [1] came out at 1.7 µg/mL (≈ 5.16 µM). For `Cc1cc(CCCCCOc2ccc(C#N)cc2)on1` [Example 7, 5-[5-(4-Cyanophenoxy)pentyl]-3-methylisoxazole], the “activity vs. rhinovirus Type 2 in vitro” value in [1] is “inactive”. Consider `Cc1cc(CCCCCCCOc2ccc([N+](=O)[O-])cc2)on1` [Example 37(b), 3-methyl-5-[7-(4-nitrophenoxy)heptyl]isoxazole], for which, in assay [2], the MIC turned out to be 1.5 µg/mL (≈ 4.71 µM). As for `Cc1cc(CCCCCCCOc2ccc(C(N)=O)cc2)on1` [Example 34, 5-[7-(4-Carbamylphenoxy)heptyl]-3-methylisoxazole], in assay [1], the “activity vs. rhinovirus Type 2 in vitro” value is on record as “not active”.

Consider `COc1ccc(OCCCCCCCc2cc(C)no2)c(Cl)c1` [Example 2, 5-[7-(2-Chloro-4-methoxyphenoxy)heptyl]-3-methylisoxazole], for which the MIC was 0.15 µg/mL (≈ 0.444 µM) in assay [2], 0.15 µg/mL (≈ 0.444 µM) in [4], 0.04 µg/mL (≈ 0.118 µM) in assay [8] and 0.08 µg/mL (≈ 0.237 µM) in [9]. The “challenge doses of poliovirus at which death was prevented” value in [3] (mice) is reported as at most 200 LD50. Also, the “prevention of death in mice infected with poliovirus” value in assay [3] (challenge doses as high as 200 LD50) is “prevented death”. The minimal effective dose in assay [5] (Enterovirus C, in Mus musculus, po, 336 h, read-out: minimal inhibitory dose) is 31 mg/kg. Moreover, the “in vivo activity against poliovirus infections in mice” value was “active in vivo” in assay [5] and “in vivo activity against poliovirus infections in mice” in [5] (listed as 5-[7-(2-chloro-4-methoxyphenoxy)heptyl]-3-methylisoxazole). Further, in assay [1], the “times as active in vitro against rhinovirus Type 2 as the corresponding 2-chloro-4-methoxyphenoxy compounds of U.S. Pat. No. 4,268,678” value is “at least 15 times”. Moreover, the “in vitro activity against picornaviruses and enteroviruses” value in [6] is “in vitro activity against a variety of picornaviruses and enteroviruses; also recorded: active against other picornaviruses and enterviruses”. Further, in assay [7], the “human rhinovirus serotypes against which active” value was 24 of 27. Moreover, in assay [7], the “most common human rhinovirus serotypes against which active” value is given as “six of the seven”.

As to `COc1ccc(OCCCCCc2cc(C)on2)c(Cl)c1` [Example 41, 3-[5-(2-Chloro-4-methoxyphenoxy)pentyl]-5-methylisoxazole], the MIC was found to be 1.4 µg/mL (≈ 4.52 µM) in assay [2] and 0.7 µg/mL (≈ 2.26 µM) in assay [1]. As to `Cc1cc(CCCCCCCCOc2ccc(C(=O)O)cc2)on1` [Example 20, 5-[8-(4-Carboxyphenoxy)octyl]-3-methylisoxazole], the “activity vs. rhinovirus Type 2 in vitro” value in assay [1] was “inactive”. On to `CCC(=NO)c1ccc(OCCCCCCCc2cc(C)no2)cc1` [Example 36, 5-[7-(4-Propionylphenoxy)heptyl]-3-methylisoxazole oxime], for which the MIC in [2] amounted to 0.2 µg/mL (≈ 0.581 µM); in assay [1], 2.6 µg/mL (≈ 7.55 µM).

In the case of `Cc1cc(CCCCCCCCOc2ccc(C#N)cc2)on1` [Example 10, 5-[8-(4-Cyanophenoxy)octyl]-3-methylisoxazole], the “activity vs. rhinovirus Type 2 in vitro” value in assay [1] was “inactive”. As for `CCOC(=O)c1cccc(OCCCCCCCc2cc(C)no2)c1` [Example 26, 5-[7-(3-Ethoxycarbonylphenoxy)heptyl]-3-methylisoxazole], the MIC in [1] amounted to 1.6 µg/mL (≈ 4.63 µM). For `CCCOC(=O)c1ccc(OCCCCCCCc2cc(C)no2)cc1` [Example 28, 5-[7-(4-Propyloxycarbonylphenoxy)heptyl]-3-methylisoxazole], in assay [1], the MIC was 0.07 µg/mL (≈ 0.195 µM). Take `COc1ccc(OCCCCCCc2cc(C)no2)c(Cl)c1` [Example 3, 5-[6-(2-Chloro-4-methoxyphenoxy)hexyl]-3-methylisoxazole]: in [1], the MIC is 0.8 µg/mL (≈ 2.47 µM). With `Cc1cc(CCCCCCCc2ccc(C#N)cc2)on1` [Example 39(f), 5-[7-(4-Cyanophenyl)heptyl]-3-methylisoxazole], the MIC in assay [1] stood at 11.2 µg/mL (≈ 39.7 µM).

`COc1ccc(OCCCCCc2cc(C)no2)c(Cl)c1` [Example 4, 5-[5-(2-Chloro-4-methoxyphenoxy)pentyl]-3-methylisoxazole]: in assay [1], the MIC was found to be 0.4 µg/mL (≈ 1.29 µM).

In the case of `Cc1cc(CCCCCCCOc2ccc(C(C)C)cc2)on1` [Example 12, 3-Methyl-5-[7-(4-isopropylphenoxy)heptyl]isoxazole], the MIC in assay [1] came out at 0.98 µg/mL (≈ 3.11 µM). With `CCOC(=O)c1ccc(OCCCCCCc2cc(C)no2)cc1` [Example 24, 5-[6-(4-Ethoxycarbonylphenoxy)hexyl]-3-methylisoxazole], the MIC in [1] is 0.025 µg/mL (≈ 0.0754 µM). The same measure, in the same setting: next, `Cc1cc(CCCCCCCOc2ccc(C(=O)OC(C)C)cc2)on1` [Example 27, 5-[7-(4-Isopropyloxycarbonylphenoxy)heptyl]-3-methylisoxazole]: 0.23 µg/mL (≈ 0.64 µM); `Cc1cc(CCCCCCCOc2ccc(OC(C)C)cc2)on1` [Example 11, 3-Methyl-5-[7-(4-isopropoxyphenoxy)heptyl]isoxazole]: 0.65 µg/mL (≈ 1.96 µM).

In the case of `Cc1cc(CCCCCCCOc2ccc(C(=O)O)cc2)on1` [Example 16, 5-[7-(4-Carboxyphenoxy)heptyl]-3-methylisoxazole], the MIC in [1] is 10 µg/mL (≈ 31.5 µM).

For `COC(=O)c1ccc(OCCCCCCCc2cc(C)no2)cc1` [Example 29, 5-[7-(4-Methoxycarbonylphenoxy)heptyl]-3-methylisoxazole], in [1], the MIC was 3 µg/mL (≈ 9.05 µM). As to `CCOC(=O)c1ccc(OCCCCCc2cc(C)no2)cc1` [Example 23, 5-[5-(4-Ethoxycarbonylphenoxy)pentyl]-3-methylisoxazole], in assay [1], the MIC was determined as 0.015 µg/mL (≈ 0.0473 µM). `Cc1cc(CCCCCCOc2ccc(C#N)cc2)on1` [Example 6, 5-[6-(4-Cyanophenoxy)hexyl]-3-methylisoxazole]: the MIC in [1] stood at 3.1 µg/mL (≈ 10.9 µM). On to `Cc1cc(CCCCCCCOc2ccc(Cl)cc2)on1` [Example 14, 3-Methyl-5-[7-(4-chlorophenoxy)heptyl]isoxazole], for which the MIC in assay [2] came to 0.4 µg/mL (≈ 1.3 µM); in assay [1], 1.5 µg/mL (≈ 4.87 µM). In the case of `CC(=O)c1ccc(OCCCCCCCc2cc(C)no2)cc1` [Example 31, 5-[7-(4-Acetylphenoxy)heptyl]-3-methylisoxazole], the MIC in assay [1] is 1.6 µg/mL (≈ 5.07 µM). In the case of `Cc1ccc(OCCCCCCCc2cc(C)no2)c(Cl)c1` [Example 15, 5-[7-(2-Chloro-4-methylphenoxy)heptyl]-3-methylisoxazole], the results for the MIC in assay [2] and in assay [1] were 0.82 µg/mL (≈ 2.55 µM) and 1.2 µg/mL (≈ 3.73 µM), respectively. On to `CCOC(=O)c1ccc(OCCCCCCCCc2cc(C)no2)cc1` [Example 25, 5-[8-(4-Ethoxycarbonylphenoxy)octyl]-3-methylisoxazole], for which the MIC in assay [1] was 0.05 µg/mL (≈ 0.139 µM). As for `CCOC(=O)c1ccc(OCCCCCCCc2cc(C)no2)cc1` [Example 22, 5-[7-(4-Ethoxycarbonylphenoxy)heptyl]-3-methylisoxazole], in [1], the MIC stood at 0.025 µg/mL (≈ 0.0724 µM).

The values are drawn from patent US4451476A (priority 1983, dated 1984).
